Laboratory results taken from US10087142B2, “Azetidine derivatives useful as modulators of cortical cathecolaminergic neurotransmission” (Integrative Research Laboratories Sweden AB, priority 2015, dated 2018).
Like-named read-outs stand apart in the source and are kept apart here. Marks after values point to notes of the source that are not given here.

What was measured:
[1] = tested on: monoamine transmitters (NA, DA and 5-HT); assay: In vivo brain microdialysis of monoamines in striatum and frontal cortex; set-up: species or system rat; conditions: rats; for response vs control in vivo at 16.7 µmol/kg: Rattus norvegicus, sc
Excerpt: The microdialysis technique (See, for instance, Collin and Ungerstedt, Microdialysis: user's guide, Carnegie Medicin, Stockholm, 1988) is a well-established technique for measuring extracellular levels of neurotransmitters (Ungerstedt, J Int Med, 1991, 230; 365-73). The microdialysis technique was used to measure the effect of compounds disclosed herein upon the efflux of monoamine transmitters (NA, DA and 5-HT) in striatum and frontal cortex in conscious, freely moving rats.
Male Sprague-Dawley rats weighing 280-320 g were used throughout the experiments. Before the experiment the animals were housed in groups, maximum five animals in each cage, with free access to water and food. The animals were housed at least one week prior to surgery and use in the experiments.
A modified version (Waters et al., J Neural Transm Gen Sect, 1994, 98(1); 39-55) of the I-shaped probe (Santiago and Westerink, N-S Arch Pharmacol, 1990, 342; 407-14) with the AN69 polyacrylonitrile/sodium methyl sulfonate copolymer (HOSPAL; o.d/i.d. 310/220 μm: dialysis membrane (Gambro, Lund, Sweden) was used in the microdialysis experiments. In the dorsal striatum, probes with an exposed length of 3 mm of dialysis membrane were used and in the prefrontal cortex the corresponding length was 2.5 mm. The rats were operated under isoflurane inhalation anesthesia while mounted into a Kopf stereotaxic instrument. Coordinates were calculated relative to bregma; dorsal striatum AP+1.0, ML±2.6, DV 6.2; Pf cortex, AP 15+3.2, ML+1.2, DV −4.08°, according to Paxinos and Watson (New York, Academic Press, 1986; FIG. 8 and FIG. 14). The dialysis probe was positioned in a burr hole under stereotaxic guidance and cemented with phosphatine dental cement (DAB Dental).
The rats were housed individually in cages for 48 h before the dialysis experiments, allowing them to recover from surgery and minimizing the risk of drug interactions with the anesthetics during the following experiments. During this period the rats had free access to food and water.
On the day of the experiment the rats were connected to a micro-perfusion pump via a swivel and were replaced in the cage where they could move freely within its confinements. The perfusion medium was a Ringer's solution containing (in mmol/I): NaCl; 140, CaCl2; 1.2, KCl; 3.0, MgCl2; 1.0 (Moghaddam and Bunney. Neurochem., 1989, 53; 652-4). The pump was set to a perfusion speed of 2 μl/min and 40 μl sample volume were collected every 20 min.
The rats were perfused for at least 40 min before sampling began. Five fractions of each 20 min were collected and the last three were used for the establishment of the baseline. After collection of baseline fractions, the pharmacological challenge to the dialysis experiment started. Test compounds were administrated by injection (s.c.) in a volume of 5 ml/kg, with 0.9% NaCl (saline) as vehicle.
The analytical method were based on two chromatographic separations dedicated for amines or acids. Two chromatographic systems shared a common auto injector with a 10-port valve and two sample loops for simultaneous injection on the two systems.
The acids were separated by reversed phase chromatography while the amines were separated by reversed phase ion pairing chromatography preceded by a reverse phase separation in a column switching configuration. Three separation columns (Luna C18 (2), dp 3 μm, 2 mm i.d., Phenomenex) of different lengths were used. Electrochemical detection was accomplished on glassy carbon electrodes (MF-1000, Bioanalytical Systems, Inc.)
The aqueous mobile phase (0.6 ml/min) for the acid system contained citric acid (40 mM, dipotassium hydrogen phosphate 10 mM, methanol 8-11% (v/v) and EDTA 0.1 mM. Column length was 30 mm and detection potential relative to Ag/AgCl reference was 0.74V. […]

[2] = tested on: Arc mRNA; assay: m-RNA analysis: Arc mRNA tissue levels in brain regions; format: in vivo, rat; conditions: 33 μmol/kg s.c., rats, 65 min before sacrifice, n = 5; for Arc frontal cortex ± SEM: frontal cortex tissue; for Arc striatum ± SEM: striatum tissue
Description: Sesack et al. (Anatom Substr Glut-Dopamine Inter. Annals of NY AcadSci, 2003, 1003; 36-52) discloses that the dopaminergic systems of the brain interact strongly with central glutamate neurotransmission. To investigate potential effects of compounds as disclosed herein on cortical and striatal NMDA type glutamate receptor related synaptic signaling, Arc mRNA induction was assessed upon acute administration. Arc (Arc/Arg3.1-activity regulated cytoskeleton-associated protein/activity-regulated gene 3.1; (Link W et al., Proc Natl Acad Sci, USA, 1995, 92; 5734-8 and Lyford G L et al., Neuron, 1995, 14; 433-45), is an immediate early gene (IEG), induced by synaptic activity, whose expression and localization at synaptic sites is triggered specifically by NMDA receptor activation and strongly related to neural plasticity (Steward and Worley, Neuron, 2001, 30; 227-40, Kawashima et al., PNAS, 2009, 106(1); 316-21 and Bramham et al., Exp Brain Res, 2010, 200; 125-40).
[…] were dissected into […] different areas: Limbic system (containing nucleus accumbens, most parts of the olfactory tubercle, ventral pallidum), striatum, frontal cortex, hippocampus and the remaining cortex.
Total RNA was prepared by the guanidin isothiocyanate method (Chomczynski P and Sacchi N, Anal Biochem, 1987, 162(1); 156-9). RNA pellets were solved in RNAse-free water and stored at −80° C. The sample concentration was determined spectrophotometrically by a NanoDrop ND1000 (Saveen Werner). A quality indicator number and an integrity number of r-RNA were measured with an Experion (Bio-rad).
A two-step reversed transcription was performed by using a SuperScript III kit (Invitrogen). 1 μg of total RNA was reverse transcribed with 5 μl 2×RT Reaction Mix, 1 μl RT Enzyme Mix, in a total volume adjusted to 10 μl with DEPC-treated water. 1 U of E. coli RNase H was added. c-DNA was diluted 40 times and stored at −20° C.
Three sequences (one gene of interest and two reference genes) were amplified together in a triplex PCR-reaction. For real-time PCR measurements: 5 μl of c-DNA reaction was amplified in a 20 μl reaction mixture containing 10 μl PerfeCta Multiplex qPCR Supermix (Quanta, VWR), 3.5 μl RNAse-free water, 0.15 μM of each primer and 0.1 μM of each probe. Real-time PCR was measured on CFX96 (Bio-rad) using the following settings for all genes: 3 min pre-incubation at 95° C. followed by 40 cycles of denaturation at 95° C. for 15 s, annealing and elongation at 60° C. for 1 minute.
Reference genes are HPRT and cyclophilin.
The primer and probe sequences are as follows for measuring of arc:
Correct PCR products are confirmed by agarose gel electrophoresis (2%) PCR products are purified with PCR purification kit from Qiagen (Valencia, Calif., USA). All genes are sequenced at MWG, Germany. […]

[3] = 50 μmol/kg s.c., striatum dialysate
[4] = 16.7 μmol/kg s.c., striatum dialysate, read-out: DA Stri ± SEM, maximum effect compared to baseline
[5] = 16.7 μmol/kg s.c., frontal cortex dialysate, Fumarate Salt
[6] = 16.7 μmol/kg s.c., striatum dialysate, Fumarate Salt

SMILES | NA Stri ± SEM, maximum effect compared to baseline ([1]; 16.7 μmol/kg s.c., striatum dialysate) | 5-HT FC ± SEM, maximum effect compared to baseline ([1]; 50 μmol/kg s.c., frontal cortex dialysate) | 5-HT Stri ± SEM, maximum effect compared to baseline [1, 3] | DA Stri ± SEM, maximum effect compared to baseline [1, 3] | NA Stri ± SEM, maximum effect compared to baseline [1, 3] | response vs control in vivo at 16.7 µmol/kg ([1]; 16.7 μmol/kg s.c., frontal cortex dialysate, read-out: 5-HT FC ± SEM, maximum effect compared to baseline) [%] | response vs control in vivo at 16.7 µmol/kg ([1]; 16.7 μmol/kg s.c., frontal cortex dialysate, read-out: DA FC ± SEM, maximum effect compared to baseline) [%] | response vs control in vivo at 16.7 µmol/kg ([1]; 16.7 μmol/kg s.c., frontal cortex dialysate, read-out: NA FC ± SEM, maximum effect compared to baseline) [%] | response vs control in vivo at 16.7 µmol/kg ([1]; 16.7 μmol/kg s.c., striatum dialysate, read-out: 5-HT Stri ± SEM, maximum effect compared to baseline) [%] | response vs control in vivo at 16.7 µmol/kg [1, 4] [%] | Arc frontal cortex ± SEM [2] | Arc striatum ± SEM [2] | 5-HT FC ± SEM, maximum effect compared to baseline [1, 5] | DA FC ± SEM, maximum effect compared to baseline [1, 5] | NA FC ± SEM, maximum effect compared to baseline [1, 5] | 5-HT Stri ± SEM, maximum effect compared to baseline [1, 6] | NA Stri ± SEM, maximum effect compared to baseline [1, 6]
Cl.Fc1cccc(C(F)C2CNC2)c1F (single isomer, unassigned; (-)) [Example 1, (−)-3-[(2,3-Difluorophenyl)(Fluoro)Methyl]Azetidine Hydrochloric Acid Salt] | 150 ± 30^c percent of control | 188 ± 16^c percent of control | 184^a percent of control | 204 ± 90^b percent of control | 145^a percent of control | 146 ± 8 | 495 ± 58 | 688 ± 102 | 171 ± 21 | 135 ± 19 | 169 ± 8% of control means | 133 ± 9% of control means | – | – | – | – | –
Fc1cc(F)cc(C(F)C2CNC2)c1.O=C(O)/C=C/C(=O)O (single isomer, unassigned; (-)) [Example 3, (−)-3-[(3,5-Difluorophenyl)(Fluoro)Methyl]Azetidine Fumarate Salt] | – | – | – | – | – | – | – | – | – | 116 ± 4 | 137 ± 6% of control means | 90 ± 7% of control means | 137 ± 16^c percent of control | 444 ± 51^c percent of control | 534 ± 45^c percent of control | 124 ± 6^c percent of control | 137^a percent of control
